According to article PMC3076384, “A Dopa Decarboxylase Modulating the Immune Response of Scallop Chlamys farreri” (PLoS ONE, 2011):

Biological target: T1, rCfDDC (recombinant CfDDC, dopa decarboxylase of Chlamys farreri) (Azumapecten farreri, UniProt F8QPW5)
T1 construct: gene DDC; ~65 kDa on gel
T1 sequence (F8QPW5 1-560): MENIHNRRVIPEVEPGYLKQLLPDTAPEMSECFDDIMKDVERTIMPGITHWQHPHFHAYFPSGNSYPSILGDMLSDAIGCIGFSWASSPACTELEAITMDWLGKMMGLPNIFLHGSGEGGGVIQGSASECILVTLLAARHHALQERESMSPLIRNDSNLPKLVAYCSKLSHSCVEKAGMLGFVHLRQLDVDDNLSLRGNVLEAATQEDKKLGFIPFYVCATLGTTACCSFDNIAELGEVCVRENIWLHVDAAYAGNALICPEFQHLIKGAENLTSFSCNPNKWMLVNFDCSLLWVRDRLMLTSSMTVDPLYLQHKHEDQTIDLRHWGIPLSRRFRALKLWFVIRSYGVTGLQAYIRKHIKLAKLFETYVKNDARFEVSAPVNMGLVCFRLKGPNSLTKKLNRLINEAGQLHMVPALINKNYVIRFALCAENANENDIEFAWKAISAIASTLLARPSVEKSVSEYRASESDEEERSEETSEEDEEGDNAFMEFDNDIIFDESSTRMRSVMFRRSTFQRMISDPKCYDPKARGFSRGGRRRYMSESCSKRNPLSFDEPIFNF
Experiment: dopamine formation measured by ELISA kit
Format: biochemical
Settings: 30 mM L-Dopa; 0.4 mM PLP; PBS pH 7.4; 37 °C; 1 h

N[C@@H](Cc1ccc(O)c(O)c1)C(=O)O [L-Dopa]
dopamine formation measured by ELISA kit: there was detectable dopamine in the reactions with the addition of rCfDDC
